Test results taken from PubChem BioAssay (NCI).
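Cells were grown in 96-well plates and exposed to each compound for 48 hours at five concentrations; endpoints were interpolated linearly between bracketing concentrations, or set to the highest concentration if not reached. Abbreviation: GI50, concentration required for 50% inhibition of growth. Definition used: TGI = concentration required for complete inhibition of growth.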

Assays:
Assay in all cases: NCI tumour cell line growth inhibition, 48 h
[1] = tested on: RPMI-8226 leukemia
[2] = tested on: SK-MEL-28 melanoma
[3] = tested on: SF-295 CNS
[4] = tested on: SK-MEL-5 melanoma
[5] = tested on: NCI-H23 lung
[6] = tested on: NCI-H522 lung
[7] = tested on: RXF 393 renal
[8] = tested on: UACC-257 melanoma
[9] = tested on: 786-0 renal
[10] = tested on: ACHN renal

Row | SMILES | TGI [1] [µM] | TGI [2] [µM] | TGI [3] [µM] | TGI [4] [µM] | TGI [5] [µM] | TGI [6] [µM] | TGI [7] [µM] | TGI [8] [µM] | TGI [9] [µM] | TGI [10] [µM] | GI50 [2] [µM] | GI50 [3] [µM] | GI50 [4] [µM] | GI50 [5] [µM] | GI50 [6] [µM] | GI50 [7] [µM] | GI50 [8] [µM] | GI50 [9] [µM] | GI50 [10] [µM] | GI50 [1] [µM]
1 | COC12C(COC(N)=O)C3=C(C(=O)C(C)=C(N)C3=O)N1CC1C2N1C (stereo not given) | > 85.5 | 57.4 | 18.1 | 9.19 | 17.6 | 25.4 | 28.7 | 35.6 | 68.5 | 25.3 | – | – | – | – | – | – | – | – | – | –
2 | Cn1c2ccccc2c2ncc3[nH]c4ccccc4c3c21 | 63 | 31.7 | 47.9 | 40 | 43.7 | 33.2 | 30.6 | 42.6 | > 100 | 54.9 | – | – | – | – | – | – | – | – | – | –
3 | C[C@H](Nc1cc(Cl)nc2c1cnn2[C@@H]1O[C@H](COP(=O)(O)CP(=O)(O)O)[C@@H](O)[C@H]1O)c1ccccc1F | – | > 100 | > 100 | > 100 | > 100 | > 100 | > 100 | > 100 | > 100 | > 100 | > 100 | > 100 | > 100 | > 100 | > 100 | > 100 | > 100 | > 100 | > 100 | –
4 | CS(=O)(=O)Nc1cc(-c2ccc3ncnc(Nc4c(Cl)ccc5c4OCO5)c3c2)cnc1Cl | 0.566 | 1.03 | 1.1 | 0.465 | 4 | 2.56 | 0.575 | 3.32 | 6.46 | > 48.1 | 0.12 | 0.171 | 0.191 | 0.25 | 0.224 | 0.143 | 0.208 | 0.233 | 0.186 | 0.148
5 | CCCCCCCN=C(N)c1ccc(N2CCN(c3ccc(C(N)=NCCCCCCC)cc3)CC2)cc1 | > 100 | > 22.4 | 0.28 | 0.0141 | – | 0.0351 | 6.69 | 4.39 | > 100 | 24.8 | 2.08 | 0.0628 | – | – | – | 2.46 | 1.24 | 0.596 | 0.499 | 0.785
6 | COC(=O)c1ccc(-c2c(C#N)[n+](=O)c3cc(Cl)c(Cl)cc3n2[O-])cc1 | 83.4 | 34.8 | 33.7 | 47.7 | 29.3 | > 100 | 28 | 50.1 | 35.6 | 35.2 | 17.2 | 12.5 | 22 | 11.7 | 4.12 | 12.1 | 21.5 | 17.6 | 17.2 | 29.8
7 | COc1cccc2c1C(=O)c1c(O)c3c(c(O)c1C2=O)C[C@@](O)(/C(C)=N/NC(=O)c1ccc(Cl)cc1)C[C@@H]3OC1CC(N)C(O)C(C)O1 (stereo not given in full) | 1.47 | – | 2.2 | – | 1.12 | – | – | 0.867 | 1.69 | 1.43 | – | 0.236 | – | 0.194 | – | – | 0.188 | 0.249 | 0.181 | 0.216
8 | Cc1cc(N(CCCNc2ccnc3cc(Cl)ccc23)Cc2ccc3c(c2)OCO3)nc(N2CCOCC2)n1 | 2.15 | 0.681 | – | 0.309 | – | 0.477 | 0.53 | 0.625 | 0.907 | – | 0.254 | – | 0.169 | – | 0.185 | 0.202 | 0.214 | 0.254 | – | 0.33
9 | CCOC(=O)/C=C/c1ccc(C#Cc2ccccc2)cc1 | > 100 | > 100 | > 100 | > 100 | > 100 | – | > 100 | > 100 | > 100 | > 100 | > 100 | 55.1 | 68.5 | 95 | – | 49.2 | > 100 | > 100 | > 100 | 54.5
10 | CCN(CC)CCSc1c2ccccc2nc2c(OC)ccc(OC)c12 | – | 8.91 | 59.4 | 16.5 | 27.9 | 19.8 | 3.94 | 16.5 | > 20.6 | > 23.5 | – | – | – | – | – | – | – | – | – | –
11 | Oc1ccc(Nc2c3ccccc3nc3occ(Cl)c23)cc1 | 4.81 | 63.8 | > 100 | 18.3 | > 100 | 8.32 | 70.3 | – | > 100 | > 100 | 6.18 | 4.65 | 3.92 | 3.26 | 2.37 | 3.83 | – | 12.9 | 15.2 | 1.61
12 | O=C(/C=C/C=C/c1ccccc1)c1ccccc1 | 72.5 | 31.3 | – | 30.2 | – | 20.2 | 37.3 | 34.2 | 27.4 | – | – | – | – | – | – | – | – | – | – | –
13 | O=C(Nc1ccc(Cl)c(C(F)(F)F)c1)c1ccc(NC2=C(Cl)C(=O)N(Cc3ccccc3)C2=O)cc1 | 6.58 | 17.6 | 52.8 | – | – | 5.54 | – | 42.7 | 32.9 | 15.2 | 4.4 | 19.7 | – | – | 2.18 | – | 16.3 | 16.2 | 4.18 | 2.56
14 | Clc1nc(Cl)nc(Nc2cccc3ccccc23)n1 | > 100 | > 100 | > 100 | > 100 | > 100 | – | – | > 100 | > 100 | > 100 | > 100 | 64 | 67.3 | > 100 | – | – | > 100 | > 100 | 92.5 | 39.8
15 | O=C1c2cccc3cccc(c23)C(=O)N1CCCCCN1CCN(CCCCCOc2ccc(-c3nc4ccc(N5CCOCC5)cc4[nH]3)cc2)CC1 | 3.72 | 25.7 | 25.4 | 19.9 | 46.6 | > 68.5 | – | 3.76 | 51.3 | > 56.1 | 13 | 8.04 | 6.43 | 21.2 | > 49 | – | 2.15 | 22.9 | > 35.7 | 0.787
